Assay results: patent publication US20250268906A1, “MOLECULAR GLUE COMPOUND BASED ON CEREBLON PROTEIN DESIGN AND USE THEREOF” (GLUETACS THERAPEUTICS (SHANGHAI) CO., LTD., priority 2022, published 2025)
Where two headings read alike, the source gives them in different places.

Experiments:
TMD8 cells = experiment: Tumor cell proliferation inhibition, CCK-8 kit, 96 h; format: cell-based; conditions: Homo sapiens, read-out: IC50 for inhibiting the proliferation of tumor cells, TMD8 cell
Experimental: (§1) The tumor cells used herein were cultured in RPMI 1640 medium supplemented with 10% FBS, penicillin to a final concentration of 100 U/mL, and streptomycin to a final concentration of 100 μg/mL, at 37° C. in an incubator with 5% CO2. Prior to experimentation, all cells used were correctly identified by STR profiling, and tested negative for Mycoplasma through routine screenings.
(§2) After 24 h, 100 μL of the inoculated cells were treated with 0.5 μL of the compounds of the present disclosure (including the compounds in Table 1, and Examples compounds) in DMSO at 10 different successively decreasing concentrations (starting at a maximum concentration of 10 μM; 5-fold serial dilutions). […] The growth inhibition of the compounds of the present disclosure on the cells was plotted using Prism Graphpad software, and the IC50 values of the compounds of the present disclosure were calculated.

[1] = target: human Cereblon WT GST-tagged protein (Homo sapiens (Human), UniProt Q96SW2); experiment: CRBN binding, HTRF (CEREBLON BINDING kit)
Experimental: The CEREBLON BINDING kits (specification: 10,000 tests; product number: Catalog #64BDCRBNPEH; CISBIO company) was used to determine the CRBN binding ability of the compounds to be tested through a HTRF method (homogeneous time-resolved fluorescence). The specific methods are as follows: • 1. […] Then, 2.5 μL of human Cereblon WT GST-tagged protein solution was added to each well. Finally, 5 μL of the thoroughly mixed Thalidomide-Re reagent and GST Eu antibody working solution were added to each of the aforementioned wells. […] The blank control wells were sequentially added with 2.5 μL of diluent #9 (1×) solution, 2.5 μL of PROTAC binding buffer, and 5 μL of thoroughly mixed Thalidomide-Re reagent and GST Eu antibody working solution. • 4.
The corresponding CRBN binding inhibition rate was calculated using the following method: […]
OD 620 nmcompound is the absorbance value of each well of the compounds of the present disclosure to be tested at an emission wavelength of 620 nm. […] OD 620 nmcontrol is the absorbance value of the blank control well at an emission wavelength of 620 nm. […] OD 620 nmStd0 is the absorbance value of the solvent control well at an emission wavelength of 620 nm.

Daudi cells = experiment: Tumor cell proliferation inhibition, CCK-8 kit, 96 h; format: cell-based; conditions: Homo sapiens
Experimental: as §1, §2

Mino cells = experiment: as above; format: cell-based; conditions: Homo sapiens
Experimental: as §1, §2

MM.1S cells = experiment: as above; format: cell-based; conditions: Homo sapiens, MM1.S
Experimental: as §1, §2

IKZF1 protein = IKZF1 protein (Homo sapiens (Human), UniProt Q13422+Q96SW2); experiment: Western blot, substrate protein degradation in hPBMC; format: cell-based; conditions: 24 h
Excerpt: (§3) The supernatant, containing the total cellular protein, was aspirated.

IKZF3 protein = IKZF3 protein (Homo sapiens (Human), UniProt Q96SW2+Q9UKT9); experiment: as above; format: cell-based; conditions: 24 h
Excerpt: as §3

GSPT1 protein = GSPT1 protein (Homo sapiens (Human), UniProt P15170+Q96SW2); conditions: hPBMC, 24 h, 50 nM
Excerpt: as §3

[2] = Daudi cells, CCK-8, read-out: IC50 for inhibiting the proliferation of tumor cells, Daudi cell
[3] = Mino cells, CCK-8, read-out: IC50 for inhibiting the proliferation of tumor cells, Mino cell
[4] = MM.1S cells, CCK-8, read-out: IC50 for inhibiting the proliferation of tumor cells, MM.1S cell

Chain of human Cereblon WT GST-tagged protein (Q96SW2 whole entry): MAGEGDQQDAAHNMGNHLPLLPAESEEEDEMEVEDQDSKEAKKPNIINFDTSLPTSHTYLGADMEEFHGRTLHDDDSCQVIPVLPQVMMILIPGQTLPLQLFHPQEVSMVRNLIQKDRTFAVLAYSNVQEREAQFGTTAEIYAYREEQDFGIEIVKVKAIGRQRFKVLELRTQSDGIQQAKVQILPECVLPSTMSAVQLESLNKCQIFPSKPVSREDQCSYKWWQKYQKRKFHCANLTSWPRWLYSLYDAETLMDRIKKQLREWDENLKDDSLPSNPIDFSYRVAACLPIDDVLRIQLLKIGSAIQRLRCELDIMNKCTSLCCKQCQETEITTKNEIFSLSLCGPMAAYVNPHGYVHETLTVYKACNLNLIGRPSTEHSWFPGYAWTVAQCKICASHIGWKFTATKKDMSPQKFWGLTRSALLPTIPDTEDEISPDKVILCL
Chain of IKZF1 protein (Q13422 whole entry): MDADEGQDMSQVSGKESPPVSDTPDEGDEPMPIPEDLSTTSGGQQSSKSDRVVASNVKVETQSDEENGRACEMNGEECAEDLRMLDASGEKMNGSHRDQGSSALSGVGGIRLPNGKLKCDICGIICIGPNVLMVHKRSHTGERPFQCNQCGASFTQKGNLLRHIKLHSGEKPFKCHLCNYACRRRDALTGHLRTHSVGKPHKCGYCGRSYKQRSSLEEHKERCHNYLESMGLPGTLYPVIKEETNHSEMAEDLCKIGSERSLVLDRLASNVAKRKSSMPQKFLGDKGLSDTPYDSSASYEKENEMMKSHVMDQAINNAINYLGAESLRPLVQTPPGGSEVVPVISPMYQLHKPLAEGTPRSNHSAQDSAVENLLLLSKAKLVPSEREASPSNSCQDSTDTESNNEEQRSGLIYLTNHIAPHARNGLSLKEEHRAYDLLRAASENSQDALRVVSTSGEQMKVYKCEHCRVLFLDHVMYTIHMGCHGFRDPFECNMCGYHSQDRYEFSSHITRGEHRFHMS
Chain of IKZF1 protein (Q96SW2 whole entry): as the sequence (Q96SW2 whole entry) above
Chain of IKZF1 protein (Q16531 whole entry partner): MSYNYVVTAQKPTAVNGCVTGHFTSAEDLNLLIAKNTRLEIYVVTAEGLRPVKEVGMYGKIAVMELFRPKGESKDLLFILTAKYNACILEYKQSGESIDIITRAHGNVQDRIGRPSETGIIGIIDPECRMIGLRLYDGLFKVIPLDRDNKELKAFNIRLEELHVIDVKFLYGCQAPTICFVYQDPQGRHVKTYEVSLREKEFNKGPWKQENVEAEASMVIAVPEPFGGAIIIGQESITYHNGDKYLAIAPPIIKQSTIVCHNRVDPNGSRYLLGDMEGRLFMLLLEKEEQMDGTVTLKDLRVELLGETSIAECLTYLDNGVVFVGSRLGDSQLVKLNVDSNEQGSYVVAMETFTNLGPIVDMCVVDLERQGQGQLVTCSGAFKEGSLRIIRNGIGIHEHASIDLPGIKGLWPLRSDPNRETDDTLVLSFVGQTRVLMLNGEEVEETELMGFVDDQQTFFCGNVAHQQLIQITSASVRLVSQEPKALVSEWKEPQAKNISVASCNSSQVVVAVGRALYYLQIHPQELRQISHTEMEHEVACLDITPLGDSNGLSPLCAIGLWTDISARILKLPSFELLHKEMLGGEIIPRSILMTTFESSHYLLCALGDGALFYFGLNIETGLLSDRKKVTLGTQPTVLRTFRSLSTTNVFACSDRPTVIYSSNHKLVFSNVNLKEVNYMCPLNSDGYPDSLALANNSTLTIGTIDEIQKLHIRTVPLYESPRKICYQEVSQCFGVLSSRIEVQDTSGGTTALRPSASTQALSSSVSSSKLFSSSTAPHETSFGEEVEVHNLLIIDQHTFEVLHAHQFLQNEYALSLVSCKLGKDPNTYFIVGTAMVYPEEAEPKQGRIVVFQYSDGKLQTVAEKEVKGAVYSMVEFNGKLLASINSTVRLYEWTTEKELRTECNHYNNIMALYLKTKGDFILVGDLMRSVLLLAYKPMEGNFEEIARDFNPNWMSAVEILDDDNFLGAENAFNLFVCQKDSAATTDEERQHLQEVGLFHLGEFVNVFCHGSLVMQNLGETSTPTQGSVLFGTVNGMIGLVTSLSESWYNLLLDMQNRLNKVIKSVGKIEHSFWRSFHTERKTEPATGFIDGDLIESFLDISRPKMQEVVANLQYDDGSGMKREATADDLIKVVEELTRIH
Chain of IKZF3 protein (Q9UKT9 whole entry): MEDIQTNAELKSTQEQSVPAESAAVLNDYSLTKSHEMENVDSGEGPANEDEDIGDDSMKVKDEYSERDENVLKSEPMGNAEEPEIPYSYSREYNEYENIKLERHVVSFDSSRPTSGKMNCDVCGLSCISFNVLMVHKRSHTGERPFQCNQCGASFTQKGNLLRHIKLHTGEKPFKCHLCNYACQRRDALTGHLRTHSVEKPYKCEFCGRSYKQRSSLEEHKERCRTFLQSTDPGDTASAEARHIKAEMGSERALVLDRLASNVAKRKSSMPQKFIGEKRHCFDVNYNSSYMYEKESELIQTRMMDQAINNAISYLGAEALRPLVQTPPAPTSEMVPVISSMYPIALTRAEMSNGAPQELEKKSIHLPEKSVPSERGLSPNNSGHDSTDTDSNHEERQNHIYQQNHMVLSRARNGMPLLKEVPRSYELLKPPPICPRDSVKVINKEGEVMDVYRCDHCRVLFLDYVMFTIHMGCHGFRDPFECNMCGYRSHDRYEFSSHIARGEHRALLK
Chain of IKZF3 protein (Q96SW2 whole entry): as the sequence (Q96SW2 whole entry) above
Chain of IKZF3 protein (Q16531 whole entry partner): as the sequence (Q16531 whole entry partner) above
Chain of GSPT1 protein (P15170 whole entry, looked up): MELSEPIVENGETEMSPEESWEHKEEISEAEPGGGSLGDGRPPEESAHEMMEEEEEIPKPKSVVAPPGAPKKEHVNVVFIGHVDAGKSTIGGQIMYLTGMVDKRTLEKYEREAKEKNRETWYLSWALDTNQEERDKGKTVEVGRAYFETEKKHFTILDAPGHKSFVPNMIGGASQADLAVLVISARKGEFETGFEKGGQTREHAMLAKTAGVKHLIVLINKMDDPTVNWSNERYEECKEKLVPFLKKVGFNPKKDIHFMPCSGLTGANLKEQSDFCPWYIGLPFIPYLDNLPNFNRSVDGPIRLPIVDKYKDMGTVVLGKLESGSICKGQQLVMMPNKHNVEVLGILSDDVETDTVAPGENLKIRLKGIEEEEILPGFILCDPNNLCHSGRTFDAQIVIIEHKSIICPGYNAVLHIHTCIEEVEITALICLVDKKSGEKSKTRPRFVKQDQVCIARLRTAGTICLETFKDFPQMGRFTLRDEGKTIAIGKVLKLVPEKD
Chain of GSPT1 protein (Q96SW2 whole entry, looked up): as the sequence (Q96SW2 whole entry) above
Chain of GSPT1 protein (Q16531 whole entry partner, looked up): as the sequence (Q16531 whole entry partner) above

| IC50 [1] [nM] | IC50 (Mino cells; [3]) [nM] | IC50 (MM.1S cells; [4]) [nM] | also measured | SMILES |
| --- | --- | --- | --- | --- |
| < 600 | – | – | IC50 (TMD8 cells; TMD8 cells, 96 h, CCK-8): 5 to 10 nM | O=C1CCC(N2Cc3c(SCc4ccc(CN5CCC(F)(F)CC5)cc4)cc(F)cc3C2=O)C(=O)N1 (stereo not drawn) [GT-04024, 3-(4-((4-((4,4-difluoropiperidin-1-yl)methyl)benzyl)thio)-6-fluoro-1-oxoisoindolin-2-yl)piperidine-2,6-dione] |
| < 600 | < 5 | – | IC50 (Daudi cells; [2]): 500 to 1000 nM; IC50 (TMD8 cells; TMD8 cells, 96 h, CCK-8): 10 to 50 nM | O=C1CCC(N2Cc3c(SCc4ccc(CN5CCCCC5)cc4)cc(F)cc3C2=O)C(=O)N1 (stereo not drawn) [GT-04117, 3-(6-fluoro-1-oxo-4-((4-(piperidin-1-ylmethyl)benzyl)thio)isoindolin-2-yl)piperidine-2,6-dione] |
| < 600 | – | – | – | O=C1CCC(N2Cc3c(SCCCCNC45CC6CC(CC(C6)C4)C5)cc(F)cc3C2=O)C(=O)N1 (stereo not drawn) [GT-04243, 3-(4-((4-((adamantan-1-yl)amino)butyl)thio)-6-fluoro-1-oxoisoindolin-2-yl)piperidine-2,6-dione] |
| < 600 | – | – | – | O=C1CCC(N2Cc3c(SCCCCCCCNC45CC6CC(CC(C6)C4)C5)cc(F)cc3C2=O)C(=O)N1 (stereo not drawn) [GT-04333, 3-(4-((7-((adamantan-1-yl)amino)heptyl)thio)-6-fluoro-1-oxoisoindolin-2-yl)piperidine-2,6-dione] |
| < 600 | – | – | – | O=C1CCC(N2Cc3c(SCCCCCCCCN4CCOCC4)cc(F)cc3C2=O)C(=O)N1 (stereo not drawn) [GT-05341, 3-(6-fluoro-4-((8-morpholinooctyl)thio)-1-oxoisoindolin-2-yl)piperidine-2,6-dione] |
| < 600 | – | – | – | CCN(CC)CCCCCCCCSc1cc(F)cc2c1CN(C1CCC(=O)NC1=O)C2=O (stereo not drawn) [GT-05342, 3-(4-((8-(diethylamino)octyl)thio)-6-fluoro-1-oxoisoindolin-2-yl)piperidine-2,6-dione] |
| < 600 | 10 to 50 | – | – | O=C1CCC(N2Cc3c(SCCCCCCC(=O)N4CCCCC4)cc(F)cc3C2=O)C(=O)N1 (stereo not drawn) [GT-05343, 3-(6-fluoro-1-oxo-4-((7-oxo-7-(piperidin-1-yl)heptyl)thio)isoindolin-2-yl)piperidine-2,6-dione] |
| < 600 | – | – | – | O=C1CCC(N2Cc3c(SCCCCCCCN4CCCCC4)cc(F)cc3C2=O)C(=O)N1 (stereo not drawn) [GT-05344, 3-(6-fluoro-1-oxo-4-((7-(piperidin-1-yl)heptyl)thio)isoindolin-2-yl)piperidine-2,6-dione] |
| < 600 | 10 to 50 | 50 to 100 | – | O=C1CCC(N2Cc3c(SCCCCCCC(=O)N4CCC(F)(F)CC4)cc(F)cc3C2=O)C(=O)N1 (stereo not drawn) [GT-05407, 3-(4-((7-(4,4-difluoropiperidin-1-yl)-7-oxoheptyl)thio)-6-fluoro-1-oxoisoindolin-2-yl)piperidine-2,6-dione] |
| < 600 | 50 to 100 | – | – | O=C1CCC(N2Cc3c(SCCCCCCCN4CCC(F)(F)CC4)cc(F)cc3C2=O)C(=O)N1 (stereo not drawn) [GT-05408, 3-(4-((7-(4,4-difluoropiperidin-1-yl)heptyl)thio)-6-fluoro-1-oxoisoindolin-2-yl)piperidine-2,6-dione] |
| < 600 | < 5 | – | – | O=C1CCC(N2Cc3c(SCCCCCCCNC4CCCCC4)cc(F)cc3C2=O)C(=O)N1 (stereo not drawn) [GT-05409, 3-(4-((7-(cyclohexylamino)heptyl)thio)-6-fluoro-1-oxoisoindolin-2-yl)piperidine-2,6-dione] |
| < 600 | < 5 | < 5 | – | CN(CCCCCCCSc1cc(F)cc2c1CN(C1CCC(=O)NC1=O)C2=O)C12CC3CC(CC(C3)C1)C2 (stereo not drawn) [GT-05421, 3-(4-((7-((adamantan-1-yl)(methyl)amino)heptyl)thio)-6-fluoro-1-oxoisoindolin-2-yl)piperidine-2,6-dione] |
| < 600 | < 5 | < 5 | – | O=C1CCC(N2Cc3c(SCCCCCCCNC4CC5(CCC5)C4)cc(F)cc3C2=O)C(=O)N1 (stereo not drawn) [GT-05422, 3-(6-fluoro-1-oxo-4-((7-(spiro[3.3]heptan-2-ylamino)heptyl)thio)isoindolin-2-yl)piperidine-2,6-dione] |
| < 600 | < 5 | < 5 | – | O=C1CCC(N2Cc3c(SCc4ccc(CNC56CC7CC(CC(C7)C5)C6)cc4)cc(F)cc3C2=O)C(=O)N1 (stereo not drawn) [GT-05423, 3-(4-((4-(((adamantan-1-yl)amino)methyl)benzyl)thio)-6-fluoro-1-oxoisoindolin-2-yl)piperidine-2,6-dione] |
| < 600 | < 5 | 10 to 50 | IC50 (Daudi cells; [2]): 100 to 500 nM | CC1(C)[C@@H]2CC[C@@]1(C)[C@@H](NCc1ccc(CSc3cc(F)cc4c3CN(C3CCC(=O)NC3=O)C4=O)cc1)C2 (stereo partly drawn) [GT-05424, 3-(6-fluoro-1-oxo-4-((4-((((1R,2S,4R)-1,7,7-trimethylbicyclo[2.2.1]heptan-2-yl)amino)methyl)benzyl)thio)isoindolin-2-yl)piperidine-2,6-dione] |
| < 600 | < 5 | 50 to 100 | IC50 (Daudi cells; [2]): 500 to 1000 nM | CC1(C)[C@@H]2CC[C@@]1(C)[C@@H](NCCCCCCCSc1cc(F)cc3c1CN(C1CCC(=O)NC1=O)C3=O)C2 (stereo partly drawn) [GT-05425, 3-(6-fluoro-1-oxo-4-((7-(((1R,2S,4R)-1,7,7-trimethylbicyclo[2.2.1]heptan-2-yl)amino)heptyl)thio)isoindolin-2-yl)piperidine-2,6-dione] |
| < 600 | < 5 | < 5 | IC50 (Daudi cells; [2]): < 5 nM | O=C1CCC(N2Cc3c(SCc4ccc(CCNC56CC7CC(CC(C7)C5)C6)cc4)cc(F)cc3C2=O)C(=O)N1 (stereo not drawn) [GT-05431, 3-(4-((4-(2-((adamantan-1-yl)amino)ethyl)benzyl)thio)-6-fluoro-1-oxoisoindolin-2-yl)piperidine-2,6-dione] |
| < 600 | < 5 | 10 to 50 | IC50 (Daudi cells; [2]): 100 to 500 nM; concentration at which IKZF1 protein is significantly degraded (IKZF1 protein; Western blot): below 0.1 nM; concentration at which IKZF3 protein is significantly degraded (IKZF3 protein; Western blot): below 10 nM | O=C1CCC(N2Cc3c(SCc4ccc(CN5CCCCC5)c(F)c4)cc(F)cc3C2=O)C(=O)N1 (stereo not drawn) [GT-05443, 3-(6-fluoro-4-((3-fluoro-4-(piperidin-1-ylmethyl)benzyl)thio)-1-oxoisoindolin-2-yl)piperidine-2,6-dione] |
| < 600 | < 5 | < 5 | IC50 (Daudi cells; [2]): 10 to 50 nM | O=C1CCC(N2Cc3c(SCc4ccc(CN5CCC(F)(F)CC5)c(F)c4)cc(F)cc3C2=O)C(=O)N1 (stereo not drawn) [GT-05444, 3-(4-((4-((4,4-difluoropiperidin-1-yl)methyl)-3-fluorobenzyl)thio)-6-fluoro-1-oxoisoindolin-2-yl)piperidine-2,6-dione] |
| < 600 | 50 to 100 | – | – | O=C1CCC(N2Cc3c(CCCCCCCCNC45CC6CC(CC(C6)C4)C5)cc(F)cc3C2=O)C(=O)N1 (stereo not drawn) [GT-05617, 3-(4-(8-((adamantan-1-yl)amino)octyl)-6-fluoro-1-oxoisoindolin-2-yl)piperidine-2,6-dione] |
| – | – | – | IC50 (Daudi cells; Daudi, read-out: IC50 for inhibiting the proliferation of tumor cells, Daudi cell): 1000 to 5000 nM; IC50 (MM.1S cells; read-out: IC50 for inhibiting the proliferation of tumor cells, MM.1S cell): 100 to 500 nM; IC50 (Mino cells; MINO, read-out: IC50 for inhibiting the proliferation of tumor cells, Mino cell): 100 to 500 nM; IC50 (TMD8 cells; TMD8, 96 h): 100 to 500 nM; degradation of IKZF1 protein (IKZF1 protein; 50 nM): does not degrade; degradation of IKZF3 protein (IKZF3 protein; 50 nM): does not degrade; degradation of GSPT1 protein (GSPT1 protein): does not degrade | Nc1cccc2c1C(=O)N(C1CCC(=O)NC1=O)C2=O (stereo not drawn) [pomalidomide, reference compound] |
